# Assay results from US10975056B2 (GlaxoSmithKline Intellectual Property Development Limited, priority 2016, dated 2021).
# Assays:
# SCD transgenic mice = assay: Fetal hemoglobin in SCD transgenic mouse model, F-reticulocytes and F-RBCs by flow cytometry; format: in vivo; conditions: oral, 10 or 50 mg/kg BID daily, measured by flow cytometry
# Excerpt: FIG. 2B depicts the effect of Compound A on fetal hemoglobin in the transgenic mouse model.
# [1] = system: erythroid progenitor cells (EPCs); assay: Cell growth analysis in day 7 EPCs (Cell Titer-Glo); format: cell-based; conditions: Homo sapiens, read-out: cell growth inhibition by 50%, average pGI50 (converted), 5 days
# Protocol: Day 7 EPCs were cultured in duplicate plates with serially diluted Compound A for 5 days at 37° C. Wells were then analyzed for either induction of fetal hemoglobin (HbF,HbF ELISA) or cell growth (Cell Titer-Glo). In both cases, signal was normalized to vehicle-control treated cells.
# All donors provided written informed consent for use of their samples, and the collection and use of the samples received institutional review board approval. All cryopreserved human bone marrow CD34+ cells used here were obtained from AlICells (Emeryville, Calif.) and were generally from different donors. The CD34+ cells were cultured to generate EPCs at day 7. […]
# At the time of compound treatment, frozen day 7 EPCs prepared as described above were thawed, washed once and re-suspended in complete culture media as described above with the exception of an increase of rhEPO to 3 U/mL. Cells were counted and diluted to […] for plating into assay plates. […]
# Cell growth assays were performed on cell culture plates after 5 days incubation at 37° C. with 5% CO2. […] The plates were then incubated at room temperature for 10 min prior to reading on ViewLux 1430 (Perkin Elmer) using a luminescence protocol. Average reading of control wells (16 wells in column 6 of each assay plate) containing DMSO only were used as the basal level for normalization. […]
# [2] = system: CpG sites in or near the promoter regions of HBG1 and HBG2 gene loci; assay: Bisulfite sequence analysis of HBG1/HBG2 DNA methylation in EPCs; format: cell-based, human; conditions: EPCs treated for 3 days, average of nine sites
# Protocol: To assay the effect of Compound A on DNA methylation, EPCs treated for 3 days with Compound A were harvested and genomic DNA was bisulfite sequenced. Methylation of nine CpG sites in or near the promoter regions of HBG1 and HBG2 gene loci were selected and analyzed based on their previous characterization as sites of DNMT1 methylation during erythropoiesis (Mabaera et al. Blood: 110 (4). 2007).
# Bisulfite Sequence Analysis
# Genomic DNA was extracted in duplicate from Day 7 EPCs cultured at 37° C. with 5% CO2 and 5% O2 for 3 days in the presence of compound using a ZYMO gDNA kit (Zymo Research, Irvine, Calif.). The isolated DNA was bisulfite converted using a Zymo EZ DNA Methylation Kit. Primer sets for Bisulfite treated regions within the HBG1 and HBG2 were designed using ABI Methyl Primer Express Software. Analyzed regions included 9 previously described sites of DNMT1-dependent DNA methylation (Mabaera et al. Blood: 110 (4). 2007). DNA was further amplified on the fluidigm and QC'd using the Agilent bio-analyzer. MiSeq was performed using the IIlumina system and the output was Analyzed using ArrayStudio v8 and CLC-GWB v8.1.
smiles,measurement,setting,value
"CCc1c(C#N)c(SC(C(N)=O)c2ccccc2)nc(N(C)C)c1C#N (stereo not shown) [Compound A, 2-{[3,5-dicyano-6-(dimethylamino)-4-ethylpyridin-2-yl]sulfanyl}-2-phenylacetamide]",% F-RBCs,SCD transgenic mice,dose dependent increases
same,% F-reticulocytes,SCD transgenic mice,dose dependent increases
same,GI50,[1],1260 nM
same,decrease in methylation of nine CpG sites compared with vehicle treated cells,[2],65±5%
